ChEMBL document CHEMBL1201862, “PubChem BioAssay data set” (2004)
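Briefly, cells in 96-well plates were exposed to five compound concentrations for 48 h, and endpoints were estimated by linear interpolation. GI50 marks 50% less growth.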 The source made the active and inactive calls. Rule as the data show it: active = GI50 up to about 1.1 µM and inactive = higher.

Tests used:
Experiment in all cases: NCI tumour cell line growth inhibition, 48 h
DLD-1 = system: DLD-1
DMS-114 = system: DMS-114
DMS-273 = system: DMS-273
KM-20L2 = system: KM-20L2
M19-MEL = system: M19-MEL
XF498 = system: XF498
BT-549 = system: BT-549
MCF7 = system: MCF7

Structure (SMILES) | GI50 (BT-549) | GI50 (MCF7) | also measured
CCCCCCCCCCCCCC(=O)OC1CC(=O)OC1CO (centres undefined) | – | – | GI50 (DLD-1): 34.4 µM (inactive); GI50 (DMS-114): 35.7 µM (inactive); GI50 (DMS-273): > 100 µM (inactive); GI50 (KM-20L2): 50.7 µM (inactive); GI50 (M19-MEL): > 100 µM (inactive); GI50 (XF498): 65.3 µM (inactive)
N#CC(C#N)=CNCCN1CCN(C=C(C#N)C#N)CC1 | > 100 µM (inactive) | > 100 µM (inactive) | –
C[C@]12CCC(=O)C=C1CC[C@@H]1[C@@H]2CC[C@]2(C)C(=O)[C@H](n3ccnc3)C[C@@H]12 | – | > 100 µM (inactive) | –
Cn1c([C@H](C#N)c2ncccc2[N+](=O)[O-])nc2ccccc21 | > 100 µM (inactive) | 21 µM (inactive) | –
COc1cc([C@@H]2c3cc4c(cc3[C@@H](NCc3ccc(C#N)cc3)C3COC(=O)[C@@H]32)OCO4)cc(OC)c1O (some centres undefined) | – | – | GI50 (DLD-1): 1.33 µM (inactive); GI50 (DMS-114): 1.2 µM (inactive); GI50 (DMS-273): 0.326 µM (active); GI50 (KM-20L2): 1.08 µM (active); GI50 (M19-MEL): 1.82 µM (inactive); GI50 (XF498): 0.278 µM (active)
Cc1cn(C(=O)NC23CC4CC(CC(C4)C2)C3)c(=O)[nH]c1=O | 21.8 µM (inactive) | 31.6 µM (inactive) | –
CN(C)/C=N/NC(=O)/C(C#N)=C/N(C)C | – | > 100 µM (inactive) | –
O=C(O)CSC(NC(=O)C(C(F)(F)F)C(F)(F)F)(C(F)(F)F)C(F)(F)F | > 100 µM (inactive) | – | –
COC(=O)c1c(C)cccc1C1CN=NC12Cc1cc(C)c(C)cc1C2=O (centres undefined) | 32.4 µM (inactive) | 33.6 µM (inactive) | –
COc1ccc(OC)c(-c2cc(O)c3cc4c(cc3n2)OCO4)c1 | – | – | GI50 (DLD-1): 3.57 µM (inactive); GI50 (DMS-114): 3.68 µM (inactive); GI50 (DMS-273): 4.06 µM (inactive); GI50 (KM-20L2): 4.14 µM (inactive); GI50 (M19-MEL): 4.21 µM (inactive); GI50 (XF498): 4.42 µM (inactive)
Cc1cccc(C)c1N1C(=O)C(=O)C(c2nc3ccccc3s2)/C(=N/c2cccc3c(=O)[nH][nH]c(=O)c23)C1=O (centres undefined) | – | – | GI50 (DLD-1): > 100 µM (inactive); GI50 (DMS-273): > 100 µM (inactive); GI50 (KM-20L2): > 100 µM (inactive); GI50 (M19-MEL): > 100 µM (inactive)
O=C1Nc2ccccc2Nc2nc3cccccc-3c21 | – | – | GI50 (DLD-1): > 100 µM (inactive); GI50 (DMS-114): > 100 µM (inactive); GI50 (DMS-273): > 100 µM (inactive); GI50 (KM-20L2): > 100 µM (inactive); GI50 (M19-MEL): > 100 µM (inactive); GI50 (XF498): > 100 µM (inactive)
CC(=O)O[C@H]1C(=O)[C@@]2(C)[C@H]([C@H](OC(=O)c3ccccc3)[C@]3(O)C[C@H](OC(=O)[C@H](O)[C@@H](NC(=O)c4ccccc4)c4cccc(N(C)C)c4)C(C)=C1C3(C)C)[C@]1(OC(C)=O)CO[C@@H]1C[C@@H]2O | 0.165 µM (active) | 0.0164 µM (active) | –
CS(=O)(=O)OCCCSCCSCCCOS(C)(=O)=O | > 100 µM (inactive) | > 100 µM (inactive) | –
COc1ccc(Oc2cnn(C(Br)(Br)C(C)=O)c(=O)c2Br)cc1 | 17.3 µM (inactive) | 15.4 µM (inactive) | –
CCc1cc(Cc2cc(CC)c(NC(=O)C(=O)Cc3ccccn3)c(CC)c2Cl)c(Cl)c(CC)c1NC(=O)C(=O)Cc1ccccn1 | – | – | GI50 (DLD-1): > 100 µM (inactive); GI50 (DMS-114): 96.8 µM (inactive); GI50 (DMS-273): > 100 µM (inactive); GI50 (KM-20L2): > 100 µM (inactive); GI50 (M19-MEL): > 100 µM (inactive); GI50 (XF498): > 100 µM (inactive)
Cc1cc(=O)n2nc(SCc3ccccc3)sc2n1 | > 100 µM (inactive) | > 100 µM (inactive) | –
O=C1C(C(O)(C(F)(F)Cl)C(F)(F)Cl)CCC1C(O)(C(F)(F)Cl)C(F)(F)Cl (centres undefined) | 4.35 µM (inactive) | 3.48 µM (inactive) | –
COC(=O)C1=C(OC(=O)/C(=C/c2ccc(Cl)cc2Cl)c2ccc(Cl)cc2Cl)C(C(=O)OC)[C@@]2(O)[C@@H](C(=O)OC)[C@H](C)C[C@@H]1[C@@H]2C(=O)OC (some centres undefined) | > 100 µM (inactive) | > 100 µM (inactive) | –
CC1(C)OCC(C2OC(=O)C(OCc3ccccc3)=C2OCc2ccccc2)O1 (centres undefined) | 35 µM (inactive) | 50.5 µM (inactive) | –
CC(=O)/C=c1\[nH]/c(=C\C=C\c2ccccc2)c(=O)n1/C=C1\C(=O)Oc2ccccc2C1=O | > 100 µM (inactive) | > 100 µM (inactive) | –
O=c1[nH]nc(Cc2ccccc2)n1/N=C/c1c[nH]c2ccccc12 | – | > 100 µM (inactive) | –
O=CN1CCN(C(=O)c2cc(Cl)cc(Cl)c2)C1=S | 17.3 µM (inactive) | 3.47 µM (inactive) | –
CC(C)c1cc(CN(C)C)c(O)c(C(C)(C)C)c1 | 37.5 µM (inactive) | 16.5 µM (inactive) | –
CN(C)CCn1c(=O)c2ccc(NCCCN(C)CCCNc3ccc4c(=O)n(CCN(C)C)c(=O)n5c6ccc(O)cc6c(=O)c3c45)c3c(=O)c4cc(O)ccc4n(c1=O)c23 | 0.0692 µM (active) | < 0.01 µM (active) | –
O=C(O)c1nc(-c2ccccn2)c(-c2ccccn2)nc1C(=O)O | 4.01 µM (inactive) | – | –
Cc1cc(O)c2c(c1)C(C1c3cccc(O)c3C(=O)c3c(O)cc(C)cc31)c1cccc(O)c1C2=O (centres undefined) | 0.292 µM (active) | 0.331 µM (active) | –
CN(C)CCNC(=O)c1ccc(NCCCN(C)CCCNc2ccc3c(=O)n(CCN(C)C)c(=O)n4c5ccccc5c(=O)c2c34)c2c(O)c3ccccc3nc12 | 0.213 µM (active) | < 0.01 µM (active) | –
Fc1ccc(C2SCc3nc4ccccc4n32)cc1 (centres undefined) | – | – | GI50 (DLD-1): 39.7 µM (inactive); GI50 (DMS-114): 39.5 µM (inactive); GI50 (M19-MEL): 41 µM (inactive); GI50 (XF498): 27.8 µM (inactive)
CC#CC#C/C=C1/C=CC2(CCCCO2)O1 (centres undefined) | > 100 µM (inactive) | 94.4 µM (inactive) | –
